What all share (experiment): NCI tumour cell line growth inhibition, 48 h
The test system of assay [1] is A498.
Assay [2] has as its system A549.
Assay [3] has as its system ACHN.
Assay [4] concerns CAKI-1.
Assay [5] concerns DU-145.
The test system of assay [6] is EKVX.
Assay [7] deals with HOP-92.
Assay [8] has as its system KM12.
In assay [9] the test system is MDA-MB-231.
The test system of assay [10] is MDA-MB-435.
Assay [11] has as its system MDA-N.
For assay [12], the system named is MOLT-4.
The subject of assay [13] is Malme-3M.
Assay [14] deals with NCI/ADR-RES.
In assay [15] the test system is OVCAR-5.
Assay [16] relates to RXF 393.
Assay [17] has as its system SF-295.
Assay [18] has as its system SN12C.
Assay [19] has as its system SW-620.
Assay [20] has as its system UACC-62.

Each structure is given as a SMILES string.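 Five compound concentrations were applied to cells in 96-well plates for 48 hours; endpoints were derived by simple linear interpolation of the resulting dose-response curve. GI50 is the concentration that inhibits growth by half.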 Calls of active or inactive are those of the source. No stated cut-off is given here; in the data, active = GI50 up to about 1.1 µM and inactive = higher.

Turning to `Cc1nc2c(=O)n(-c3ccccc3)c3ccccc3c2o1`, the GI50 in assay [1], in assay [2], in assay [3], in assay [4], in assay [5] and in assay [6] was > 100 µM (inactive) each time. In addition, the GI50 in assay [7], in assay [8], in assay [9], in assay [10], in [11] and in [12] was > 100 µM (inactive) in each case. In addition, the GI50 in [13], in assay [14], in [15], in assay [16], in assay [17] and in assay [18] was > 100 µM (inactive) in each case. In addition, the GI50 in assay [19] and in assay [20] was > 100 µM (inactive) in each case.

Regarding `CN(C)c1ccc(/C=C(\NC(=O)c2ccccc2)C(=O)NCC(=O)O)cc1`, the GI50 in assay [1], in assay [2], in assay [3], in assay [4], in assay [5] and in assay [6] was > 100 µM (inactive) in each case. Also, the GI50 in [7], in assay [8], in assay [9], in [10], in assay [11] and in assay [12] was > 100 µM (inactive) each time. The GI50 in [13], in assay [14], in assay [15], in [16], in assay [17] and in [18] was > 100 µM (inactive) in each case. Moreover, the GI50 in assay [19] and in assay [20] was > 100 µM (inactive) each time.

Take `Oc1cc(CN2COc3ccccc32)c(O)cc1CNC1CCCCC1`: the GI50 is 22 µM (inactive) in [1]; > 100 µM (inactive) in [2]; 29.2 µM (inactive) in [3]; 28.3 µM (inactive) in assay [4]; 45.2 µM (inactive) in assay [5]; 17.3 µM (inactive) in assay [6]. The GI50 in assay [7] was 28.2 µM (inactive); in assay [8] it was 49.9 µM (inactive); in assay [9], 21.9 µM (inactive); in [10], 24.6 µM (inactive); in assay [11] it was 17.7 µM (inactive); in assay [12] it was 8.79 µM (inactive). For the same molecule, the GI50 in assay [13] is 18.9 µM (inactive); in assay [14], 37.2 µM (inactive); in [15], > 100 µM (inactive); in [16] it was 21.5 µM (inactive); in assay [17], > 100 µM (inactive); in assay [18], 30.7 µM (inactive). In addition, the GI50 in assay [19] is 35.6 µM (inactive); in assay [20], 23.9 µM (inactive).

`O=C(N(O)c1ccccc1Cl)C(O)(c1ccccc1)c1ccccc1`: the GI50 was > 100 µM (inactive) in [1]; 71.1 µM (inactive) in assay [2]; 52.8 µM (inactive) in assay [3]; 30.2 µM (inactive) in assay [4]; 59.8 µM (inactive) in assay [5]; > 100 µM (inactive) in assay [6]. In addition, the GI50 in assay [7] is 26.1 µM (inactive); in assay [8], 36.1 µM (inactive); in assay [9], > 100 µM (inactive); in [10], 65.2 µM (inactive); in [11] it was 67.1 µM (inactive); in [12] it was 30.8 µM (inactive). The GI50 in assay [13] is > 100 µM (inactive); in assay [14], 63.8 µM (inactive); in [15], 82 µM (inactive); in [16] it was 51.2 µM (inactive); in assay [17] it was 30.4 µM (inactive); in assay [18], > 100 µM (inactive). In addition, the GI50 was 42.7 µM (inactive) in assay [19] and 45.8 µM (inactive) in assay [20].

Consider `O=C1NC(SSC2=NNC3(C(=O)N2)c2ccccc2-c2ccccc23)=NNC12c1ccccc1-c1ccccc12`, for which the GI50 in assay [1], in [2], in assay [3], in assay [4], in assay [5] and in [6] was > 10 µM (inactive) throughout. Besides, the GI50 in [7], in assay [8], in [9], in assay [10], in assay [11] and in [12] was > 10 µM (inactive) throughout. Besides, the GI50 in assay [13], in assay [14], in assay [15], in assay [16], in assay [17] and in assay [18] was > 10 µM (inactive) each time. Moreover, the GI50 in assay [19] and in assay [20] was > 10 µM (inactive) each time.

As for `Nc1ccn([C@@H]2C=C(CO)[C@@H](O)[C@H]2O)c(=O)n1`, the GI50 in assay [1] was 1.84 µM (inactive); in assay [2], 0.0592 µM (active); in [3], 0.0559 µM (active); in assay [4], 0.101 µM (active); in assay [5], 0.0261 µM (active); in assay [6], 0.562 µM (active). The GI50 in [7] was 0.224 µM (active); in assay [8] it was 0.143 µM (active); in assay [9] it was 0.467 µM (active); in [10] it was 0.05 µM (active); in [11], 0.0353 µM (active); in assay [12], 0.0501 µM (active). In addition, the GI50 was 1.86 µM (inactive) in assay [13]; 0.092 µM (active) in assay [14]; 1.48 µM (inactive) in assay [15]; 0.53 µM (active) in [16]; 0.155 µM (active) in [17]; 0.0546 µM (active) in assay [18]. The GI50 in assay [19] was 0.0849 µM (active); in assay [20], 0.227 µM (active).

In the case of `CC1C/C(=C\c2ccc(OC(=O)C(C)(C)C)cc2)C(=O)/C(=C/c2ccc(OC(=O)C(C)(C)C)cc2)C1` (stereo not given), the GI50 in assay [1] is 33.6 µM (inactive); in [2] it was 40.6 µM (inactive); in [3] it was 69.3 µM (inactive); in assay [4] it was > 100 µM (inactive); in [5], > 100 µM (inactive); in assay [6], > 100 µM (inactive). Further, the GI50 is > 100 µM (inactive) in [7]; 26.2 µM (inactive) in assay [8]; 59.3 µM (inactive) in [9]; 46.5 µM (inactive) in assay [10]; 30.5 µM (inactive) in assay [11]; 7.66 µM (inactive) in assay [12]. For the same molecule, the GI50 was > 100 µM (inactive) in assay [13]; > 100 µM (inactive) in assay [14]; > 100 µM (inactive) in [15]; 19.8 µM (inactive) in [16]; 81.5 µM (inactive) in [17]; 26.2 µM (inactive) in assay [18]. In addition, the values for the GI50 in assay [19] and in [20] were > 100 µM (inactive) and 95.5 µM (inactive), respectively.

Take `CC1=NN2C(=N)/C(=C/c3ccccc3)C(=O)N=C2S1`: the GI50 in assay [1], in assay [2], in assay [3], in [4], in assay [5] and in [6] was > 100 µM (inactive) each time. The GI50 in assay [7], in [8], in assay [9], in assay [10], in [11] and in assay [12] was > 100 µM (inactive) in each case. Also, the GI50 is > 100 µM (inactive) in assay [13]; > 33.1 µM (inactive) in assay [14]; > 100 µM (inactive) in assay [15]; > 100 µM (inactive) in assay [16]; > 100 µM (inactive) in [17]; > 100 µM (inactive) in [18]. Moreover, the GI50 in assay [19] and in assay [20] was > 100 µM (inactive) each time.

The values are drawn from ChEMBL document CHEMBL1201862, “PubChem BioAssay data set” (2004).
